Biological target: T1, SHP2 protein (Homo sapiens, UniProt Q06124)
T1 sequence (Q06124 1-593): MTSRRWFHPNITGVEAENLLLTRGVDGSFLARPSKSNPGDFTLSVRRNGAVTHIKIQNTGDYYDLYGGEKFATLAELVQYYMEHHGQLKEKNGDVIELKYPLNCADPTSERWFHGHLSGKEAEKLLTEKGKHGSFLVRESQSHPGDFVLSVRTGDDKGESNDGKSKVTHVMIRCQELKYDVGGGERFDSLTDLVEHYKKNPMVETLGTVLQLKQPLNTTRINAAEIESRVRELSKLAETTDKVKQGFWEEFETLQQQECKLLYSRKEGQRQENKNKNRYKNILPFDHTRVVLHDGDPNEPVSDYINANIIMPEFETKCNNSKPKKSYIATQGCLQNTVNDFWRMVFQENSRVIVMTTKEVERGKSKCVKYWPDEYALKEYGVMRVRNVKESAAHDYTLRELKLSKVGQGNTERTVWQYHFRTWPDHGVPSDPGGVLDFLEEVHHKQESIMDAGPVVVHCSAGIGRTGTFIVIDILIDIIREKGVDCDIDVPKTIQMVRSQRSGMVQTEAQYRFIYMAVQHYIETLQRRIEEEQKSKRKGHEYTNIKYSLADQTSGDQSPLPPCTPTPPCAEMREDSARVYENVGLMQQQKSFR
Experiment: Measurement of SHP2 protein degradation in MV-4-11 cells (western blotting)
Format: cell-based
Set-up: endogenous in cells
Conditions: harvested after 24 hours
Description: MV-4-11 cells were treated with the synthesized Example compounds, and the amount of SHP2 protein present in the cells was measured using western blotting detection. The protocol for the experiment conducted using MV-4-11 cells is as follows.
[Culture] MV-4-11 cells were resuspended in IMDM MEDIUM (Hyclone, SH30228.01), 5% FBS (Hyclone, SV30207.02), 1% Penicillin-streptomycin (Welgene, LS 202-02) media and seeded at 1×10^6/mL in 12-well plates (1 mL each).
[Compound treatment]12-well plates were treated as follows. 10 mM stock dissolved in DMSO was serially diluted 1/100 or 1/10 with media, and the compounds were treated to the cells at a final concentration of 0.01, 0.1, 1 μM or 0.001, 0.01, 0.1 μM, and harvested after 24 hours. For the negative control group, DMSO diluted 1/100 or 1/1000 in media was added (3 μL DMSO+297 μL media or 1 μL DMSO+999 μL media).
[Harvest] Each well was pipetted with a 1 mL pipette, collected in a 1.5 mL microtube, and centrifuged (500 g, 5 min, 4° C.). The supernatant was removed, washed with PBS, and centrifuged again (500 g, 5 min, 4° C.). The supernatant was removed and a pellet was prepared.
[Cell lysis and sample preparation] Lysis buffer was prepared as follows. RIPA buffer (Biosesang, RC2038-050-00)+0.5 mM PMSF (SIGMA, P7626)+1× Protease/Phosphatase Inhibitor (Cell signaling, 5872S) were added at 50 μL per tube and incubated on ice for 30 minutes (vortexed at 0 and 30 minutes). After sonication (10 sec pulse, 30 sec rest, 5 cycles, 70% amplification) and centrifugation (15,000 g, 15 min, 4° C.), only the supernatant was transferred to a microtube. RIPA buffer 7.5 μL and sample 2.5 μL were added to a 96-well plate to dilute to 1/4, and then BCA Protein Assay Kit (iNtRON, 21071) A and B were mixed in a 50:1 ratio and 200 μL each was added. After that, the plate was incubated at 37° C. for 30 minutes and left at room temperature for 10 minutes. After shaking for 10 seconds with a SYNERGY H1 microplate reader from BioTek, the absorbance was measured at 562 nm. The protein was quantified using the measured value to prepare a sample, which was then incubated at 70° C. for 10 minutes. The sample buffer used at this time is a mixture of NuPAGE or Bolt 4× sample buffer (Invitrogen) and each 10× sample reducing agent according to the gel to be used, and RIPA buffer was used for protein dilution.
[Western blotting detection] Equal amounts of samples were loaded onto NuPAGE or Bolt Bis-tris 4-12% gradient gels and run (200 V, 35 min). This was transferred to […] NC membranes using Trans-blot Turbo (BIO-RAD) (1.3 A constant, 25 V limit, 15 min), and was blocked at room temperature for 1 hour with Skim milk or Intercept Blocking Buffer (LI-COR, 927-60001):0.1% TBST=1:1. Anti-SHPTP2 Mouse (1:500 in 2% BSA/0.2% TBST, size: 70 kDa, Santacruz sc-7384) was incubated overnight at 4° C., and Anti-GAPDH Rabbit (1:2,000 in 2% BSA/0.2% TBST, size: 37 kDa, CST #2118) was incubated at room temperature for 1.5 hours or 3 hours. After washing three times for 5 minutes each with 0.2% TBST washing buffer, secondary antibodies Anti-Mouse IgG (1:5,000 in 2% BSA/0.2% TBST, CST) and IRDye® 680RD Goat anti-Rabbit IgG Secondary Antibody (1:10,000 in 2% BSA/0.2% TBST, LI-COR 926-68071) were added, and incubated on a rocker at room temperature for 45 minutes. The resultants were washed five times for 5 minutes each with 0.2% TBST washing buffer, and detected using LI-COR's Odyssey. GAPDH was detected with a 700 nm channel, and SHPTP2 was detected using SuperSignal West Pico PLUS Chemiluminescent Substrate.

| SMILES | SHP2% degradation (0.01 μM) [%] | SHP2% degradation (0.1 μM) [%] |
| --- | --- | --- |
| Cc1ncsc1-c1ccc(CNC(=O)[C@@H]2C[C@@H](O)CN2C(=O)[C@@H](NC(=O)C2(F)CC2)C(C)(C)C)c(O[C@H]2CC[C@H](C(=O)N3CC(Nc4cccc(Oc5cnc(N6CCC(C)(CN)CC6)cn5)c4Cl)C3)CC2)c1 [Example 16, (2S,4R)—N-(2-(((1R,4S)-4-(3-((3-((5-(4-(aminomethyl)-4-methylpiperidin-1-yl)pyrazin-2-yl)oxy)-2-chlorophenyl)amino)azetidine-1-carbonyl)cyclohexyl)oxy)-4-(4-methylthiazol-5-yl)benzyl)-1-((S)-2-(1-fluorocyclopropane-1-carboxamido)-3,3-dimethylbutanoyl)-4-hydroxypyrrolidine-2-carboxamide] | −30.1 | 94.3 |
| Cc1ncsc1-c1ccc(CNC(=O)[C@@H]2C[C@@H](O)CN2C(=O)[C@@H](NC(=O)C2(F)CC2)C(C)(C)C)c(O[C@H]2CC[C@H](C(=O)N3CCC(Nc4cccc(Sc5cnc(N6CCC(C)(CN)CC6)cn5)c4Cl)CC3)CC2)c1 [Example 17, (2S,4R)—N-(2-(((1R,4S)-4-(4-((3-((5-(4-(aminomethyl)-4-methylpiperidin-1-yl)pyrazin-2-yl)thio)-2-chlorophenyl)amino)piperidine-1-carbonyl)cyclohexyl)oxy)-4-(4-methylthiazol-5-yl)benzyl)-1-((S)-2-(1-fluorocyclopropane-1-carboxamido)-3,3-dimethylbutanoyl)-4-hydroxypyrrolidine-2-carboxamide] | 64.4 | 96.6 |
| Cc1ncsc1-c1ccc(CNC(=O)[C@@H]2C[C@@H](O)CN2C(=O)[C@@H](NC(=O)C2(F)CC2)C(C)(C)C)c(O[C@H]2CC[C@H](C(=O)N3CC(CNc4cccc(Sc5cnc(N6CCC(C)(CN)CC6)cn5)c4Cl)C3)CC2)c1 [Example 18, (2S,4R)—N-(2-(((1R,4S)-4-(3-(((3-((5-(4-(aminomethyl)-4-methylpiperidin-1-yl)pyrazin-2-yl)thio)-2-chlorophenyl)amino)methyl)azetidine-1-carbonyl)cyclohexyl)oxy)-4-(4-methylthiazol-5-yl)benzyl)-1-((S)-2-(1-fluorocyclopropane-1-carboxamido)-3,3-dimethylbutanoyl)-4-hydroxypyrrolidine-2-carboxamide] | 63.2 | 98.4 |
| Cc1ncsc1-c1ccc(CNC(=O)[C@@H]2C[C@@H](O)CN2C(=O)[C@@H](NC(=O)C2(F)CC2)C(C)(C)C)c(O[C@H]2CC[C@H](C(=O)N3CCC(CNc4cccc(Sc5cnc(N6CCC(C)(CN)CC6)cn5)c4Cl)CC3)CC2)c1 [Example 19, (2S,4R)—N-(2-(((1R,4S)-4-(4-(((3-((5-(4-(aminomethyl)-4-methylpiperidin-1-yl)pyrazin-2-yl)thio)-2-chlorophenyl)amino)methyl)piperidine-1-carbonyl)cyclohexyl)oxy)-4-(4-methylthiazol-5-yl)benzyl)-1-((S)-2-(1-fluorocyclopropane-1-carboxamido)-3,3-dimethylbutanoyl)-4-hydroxypyrrolidine-2-carboxamide] | 50.4 | 95.7 |

Further lines, results first:

| SHP2% degradation (0.01 μM) [%] | SHP2% degradation (0.1 μM) [%] | SMILES |
| --- | --- | --- |
| 78.8 | 98.2 | Cc1ncsc1-c1ccc(CNC(=O)[C@@H]2C[C@@H](O)CN2C(=O)[C@@H](NC(=O)C2(F)CC2)C(C)(C)C)c(O[C@H]2CC[C@H](C(=O)N3CC(Nc4nccc(Sc5cnc(N6CCC(C)(CN)CC6)cn5)c4Cl)C3)CC2)c1 [Example 20, (2S,4R)—N-(2-(((1R,4S)-4-(3-((4-((5-(4-(aminomethyl)-4-methylpiperidin-1-yl)pyrazin-2-yl)thio)-3-chloropyridin-2-yl)amino)azetidine-1-carbonyl)cyclohexyl)oxy)-4-(4-methylthiazol-5-yl)benzyl)-1-((S)-2-(1-fluorocyclopropane-1-carboxamido)-3,3-dimethylbutanoyl)-4-hydroxypyrrolidine-2-carboxamide] |
| 81.1 | 99.7 | Cc1ncsc1-c1ccc(CNC(=O)[C@@H]2C[C@@H](O)CN2C(=O)[C@@H](NC(=O)C2(F)CC2)C(C)(C)C)c(O[C@H]2CC[C@H](C(=O)N3CC(Nc4nccc(Sc5cnc(N6CCC(C)(N)CC6)cn5)c4Cl)C3)CC2)c1 [Example 21, (2S,4R)—N-(2-(((1R,4S)-4-(3-((4-((5-(4-amino-4-methylpiperidin-1-yl)pyrazin-2-yl)thio)-3-chloropyridin-2-yl)amino)azetidine-1-carbonyl)cyclohexyl)oxy)-4-(4-methylthiazol-5-yl)benzyl)-1-((S)-2-(1-fluorocyclopropane-1-carboxamido)-3,3-dimethylbutanoyl)-4-hydroxypyrrolidine-2-carboxamide] |
| 74.2 | 99.8 | Cc1ncsc1-c1ccc(CNC(=O)[C@@H]2C[C@@H](O)CN2C(=O)[C@@H](NC(=O)C2(F)CC2)C(C)(C)C)c(O[C@H]2CC[C@H](C(=O)N3CCC(Nc4nccc(Sc5cnc(N6CCC(C)(CN)CC6)cn5)c4Cl)CC3)CC2)c1 [Example 23, (2S,4R)—N-(2-(((1R,4S)-4-(4-((4-((5-(4-(aminomethyl)-4-methylpiperidin-1-yl)pyrazin-2-yl)thio)-3-chloropyridin-2-yl)amino)piperidine-1-carbonyl)cyclohexyl)oxy)-4-(4-methylthiazol-5-yl)benzyl)-1-((S)-2-(1-fluorocyclopropane-1-carboxamido)-3,3-dimethylbutanoyl)-4-hydroxypyrrolidine-2-carboxamide] |
| 83.1 | 100.0 | Cc1ncsc1-c1ccc(CNC(=O)[C@@H]2C[C@@H](O)CN2C(=O)[C@@H](NC(=O)C2(F)CC2)C(C)(C)C)c(O[C@H]2CC[C@H](C(=O)N3CCC(Nc4nccc(Sc5cnc(N6CCC(C)(N)CC6)cn5)c4Cl)CC3)CC2)c1 [Example 24, (2S,4R)—N-(2-(((1R,4S)-4-(4-((4-((5-(4-amino-4-methylpiperidin-1-yl)pyrazin-2-yl)thio)-3-chloropyridin-2-yl)amino)piperidine-1-carbonyl)cyclohexyl)oxy)-4-(4-methylthiazol-5-yl)benzyl)-1-((S)-2-(1-fluorocyclopropane-1-carboxamido)-3,3-dimethylbutanoyl)-4-hydroxypyrrolidine-2-carboxamide] |
